Data on 13 compounds can be found in patent US10308643B2, “Heterocyclic compound” (Takeda Pharmaceutical Company Limited, priority 2015, dated 2019).

Common to all, as to assay type: biochemical
One assay addresses T1, HDAC1 enzyme (Homo sapiens, UniProt Q13547).
T1 construct: transducing full length HDAC1 and HDAC6 genes into Sf-9 insect cells; GST; purchased SignalChem; host or cells: Sf-9 insect cells
Nature of the assay: HDAC1/6 Enzyme Inhibitory Assay (HDAC-Glo I/II Assay kit), HDAC1. The following applies: 1 μM test compound, wells without enzyme = 100% inhibition; for inhibition at 1 µM: read-out: HDAC1 inhibitory rate (%) (1 μM). The procedure: (§1) HDAC1/6 Enzyme Inhibitory Assay
(§2) HDAC1 enzyme and HDAC6 enzyme each prepared by transducing full length HDAC1 and HDAC6 genes into Sf-9 insect cells and purifying by GST affinity column were purchased from SignalChem. Using these enzymes, HDAC1 and/or HDAC6 enzyme inhibitory activities of the compound of the present invention were evaluated. Enzymes were used after preserved at −70° C. HDAC1 or HDAC6 enzyme inhibitory activity of the compound of the present invention was measured using HDAC-Glo™ I/II Assay kit (Promega) according to the following experimental method. The test compound diluted with assay buffer (24 mM Tris-HCl (pH 7.5), 1 mM MgCl2, 0.35 mM KCl, 135 mM NaCl, 0.6 mM Glutathione, 0.01% Tween-20) was added to a 384-well plate by each 2 μL. Then, HDAC1 or HDAC6 enzyme solution diluted with assay buffer was added thereto by each 4 μL, and the plate was incubated at room temperature for 60 min. After incubated, HDAC substrate-Developer solution prepared according to Promega protocol attached to the assay kit was added to the 384-well plate by each 2 μL, and the enzyme reaction was started. After reacting at room temperature for 20 min, luminescence level was measured using plate reader Envision (PerkinElmer). The inhibitory activity of each compound was calculated as a relative activity value when luminescence level in wells without enzyme is considered as 100% inhibition.

The target in a further assay is T2, HDAC9 enzyme (Homo sapiens, UniProt Q9UKV0).
T2 construct: transducing full length HDAC9 gene into Sf-9 insect cells; made in house; host or cells: Sf-9 insect cells
T2 sequence (Q9UKV0 whole entry, species assumed): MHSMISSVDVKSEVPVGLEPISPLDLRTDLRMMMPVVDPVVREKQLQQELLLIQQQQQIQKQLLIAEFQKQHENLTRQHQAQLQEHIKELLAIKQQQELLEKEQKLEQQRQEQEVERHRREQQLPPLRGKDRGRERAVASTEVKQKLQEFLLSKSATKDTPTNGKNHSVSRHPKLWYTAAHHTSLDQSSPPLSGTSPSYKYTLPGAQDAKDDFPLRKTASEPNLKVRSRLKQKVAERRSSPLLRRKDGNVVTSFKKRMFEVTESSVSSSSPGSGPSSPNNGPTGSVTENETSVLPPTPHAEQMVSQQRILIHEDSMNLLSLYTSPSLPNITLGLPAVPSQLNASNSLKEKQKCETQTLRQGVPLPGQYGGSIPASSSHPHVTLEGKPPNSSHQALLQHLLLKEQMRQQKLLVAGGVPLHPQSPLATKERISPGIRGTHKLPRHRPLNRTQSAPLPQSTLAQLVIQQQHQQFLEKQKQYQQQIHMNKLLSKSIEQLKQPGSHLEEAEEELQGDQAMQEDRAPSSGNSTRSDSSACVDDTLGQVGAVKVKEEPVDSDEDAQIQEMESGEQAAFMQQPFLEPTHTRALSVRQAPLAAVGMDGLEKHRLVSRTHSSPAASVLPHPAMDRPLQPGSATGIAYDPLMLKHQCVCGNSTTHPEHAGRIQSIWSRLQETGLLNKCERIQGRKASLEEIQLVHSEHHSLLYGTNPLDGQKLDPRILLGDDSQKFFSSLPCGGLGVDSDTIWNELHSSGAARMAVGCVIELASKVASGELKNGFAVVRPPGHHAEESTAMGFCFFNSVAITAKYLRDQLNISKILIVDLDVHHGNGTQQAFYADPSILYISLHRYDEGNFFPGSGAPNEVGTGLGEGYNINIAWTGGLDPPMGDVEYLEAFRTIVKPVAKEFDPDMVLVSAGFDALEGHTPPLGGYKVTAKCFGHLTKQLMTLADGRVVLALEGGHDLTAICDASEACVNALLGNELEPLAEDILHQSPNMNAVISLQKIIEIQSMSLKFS
The assay is described as follows: HDAC9 Enzyme Inhibitory Assay (HDAC-Glo class IIa). Particulars: 1 μM test compound, wells without enzyme = 100% inhibition; for inhibition at 1 µM: read-out: HDAC9 inhibitory rate (%) (1 μM). As for the experimental part:
HDAC9 Enzyme Inhibitory Assay
Enzyme was prepared by transducing full length HDAC9 gene into Sf-9 insect cells and purifying by Ni-NTA affinity column, and HDAC9 enzyme inhibitory activity was evaluated. Enzymes were used after preserved at −70° C. HDAC9 enzyme inhibitory activity of the test compound was measured using HDAC-Glo class IIa (Promega) according to the following experimental method. The test compound diluted with assay buffer (24 mM Tris-HCl (pH 7.5), 1 mM MgCl2, 0.35 mM KCl, 135 mM NaCl, 0.6 mM Glutathione, 0.01% Tween-20) was added to a 384-well plate by each 2 μL. Then, HDAC9 enzyme solution diluted with assay buffer was added thereto by each 2 μL, and the plate was incubated at room temperature for 60 min. After incubated, HDAC substrate-Developer solution prepared according to Promega protocol was added to the 384-well plate by each 4 μL, and the enzyme reaction was started. After reacting at room temperature for 20 min, luminescence level was measured using plate reader Envision (PerkinElmer). The inhibitory activity of each compound was calculated as a relative activity value when luminescence level in wells without enzyme is considered as 100% inhibition.

For another assay, the target named is T3, HDAC6 enzyme (Homo sapiens, UniProt Q9UBN7).
T3 construct: transducing full length HDAC1 and HDAC6 genes into Sf-9 insect cells; GST; purchased SignalChem; host or cells: Sf-9 insect cells
T3 sequence (Q9UBN7 1-1215): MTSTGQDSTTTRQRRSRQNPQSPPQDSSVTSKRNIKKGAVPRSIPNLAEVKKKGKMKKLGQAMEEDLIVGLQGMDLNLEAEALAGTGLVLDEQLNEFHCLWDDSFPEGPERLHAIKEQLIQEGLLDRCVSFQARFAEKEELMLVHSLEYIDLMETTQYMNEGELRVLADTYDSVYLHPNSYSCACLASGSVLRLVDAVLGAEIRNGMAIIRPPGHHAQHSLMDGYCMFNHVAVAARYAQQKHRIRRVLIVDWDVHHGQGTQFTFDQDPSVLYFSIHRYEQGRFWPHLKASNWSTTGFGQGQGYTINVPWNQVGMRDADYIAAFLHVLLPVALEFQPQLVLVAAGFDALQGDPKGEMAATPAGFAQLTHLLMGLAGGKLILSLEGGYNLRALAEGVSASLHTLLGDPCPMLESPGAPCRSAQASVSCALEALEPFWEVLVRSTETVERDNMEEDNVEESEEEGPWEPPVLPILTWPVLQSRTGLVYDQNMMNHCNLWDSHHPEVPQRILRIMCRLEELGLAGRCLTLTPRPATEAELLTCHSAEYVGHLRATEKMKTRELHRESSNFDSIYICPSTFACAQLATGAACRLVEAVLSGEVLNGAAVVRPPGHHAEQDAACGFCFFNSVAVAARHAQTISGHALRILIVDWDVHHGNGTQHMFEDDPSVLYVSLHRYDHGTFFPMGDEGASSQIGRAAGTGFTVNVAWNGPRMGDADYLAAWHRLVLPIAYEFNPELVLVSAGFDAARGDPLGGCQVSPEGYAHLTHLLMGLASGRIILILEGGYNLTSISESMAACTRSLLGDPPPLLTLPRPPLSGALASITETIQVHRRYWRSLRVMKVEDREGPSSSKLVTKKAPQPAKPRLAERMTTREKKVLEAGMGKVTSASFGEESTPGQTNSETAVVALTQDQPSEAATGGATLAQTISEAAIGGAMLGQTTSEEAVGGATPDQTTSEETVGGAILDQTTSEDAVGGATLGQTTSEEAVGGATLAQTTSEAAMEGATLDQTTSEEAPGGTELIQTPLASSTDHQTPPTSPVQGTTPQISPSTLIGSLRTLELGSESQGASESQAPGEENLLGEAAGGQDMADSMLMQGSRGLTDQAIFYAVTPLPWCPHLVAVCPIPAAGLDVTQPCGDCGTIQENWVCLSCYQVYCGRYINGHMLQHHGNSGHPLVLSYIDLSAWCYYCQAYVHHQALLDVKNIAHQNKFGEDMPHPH
Nature of the assay: HDAC1/6 Enzyme Inhibitory Assay (HDAC-Glo I/II Assay kit), HDAC6. The following applies: 1 μM test compound, wells without enzyme = 100% inhibition; for inhibition at 1 µM: read-out: HDAC6 inhibitory rate (%) (1 μM). The procedure:
as §1, §2

T1 sequence (Q13547 whole entry): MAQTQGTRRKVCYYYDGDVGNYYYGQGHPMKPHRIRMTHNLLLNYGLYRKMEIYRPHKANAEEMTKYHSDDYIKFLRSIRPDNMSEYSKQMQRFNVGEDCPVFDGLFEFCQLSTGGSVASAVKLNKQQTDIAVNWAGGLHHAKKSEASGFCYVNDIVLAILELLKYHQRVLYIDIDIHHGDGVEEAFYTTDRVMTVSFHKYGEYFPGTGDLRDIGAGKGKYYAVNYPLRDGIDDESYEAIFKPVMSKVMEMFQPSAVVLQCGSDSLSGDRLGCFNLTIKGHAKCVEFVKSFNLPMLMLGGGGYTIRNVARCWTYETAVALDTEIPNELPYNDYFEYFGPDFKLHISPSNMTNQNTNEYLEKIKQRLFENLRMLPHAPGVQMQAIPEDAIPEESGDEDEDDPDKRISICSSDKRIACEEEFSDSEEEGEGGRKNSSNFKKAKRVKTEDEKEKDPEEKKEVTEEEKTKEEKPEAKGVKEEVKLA

In the case of `O=C1C[C@](Cc2ccccc2)(N2Cc3ccc(-c4noc(C(F)(F)F)n4)cc3C2=O)CN1` [Example 61, 2-((3S)-3-benzyl-5-oxopyrrolidin-3-yl)-6-(5-(trifluoromethyl)-1,2,4-oxadiazol-3-yl)isoindolin-1-one], the inhibition at 1 µM worked out at 41% at HDAC1 enzyme, 93% on HDAC9 enzyme and 99% on HDAC6 enzyme.
For `O=C(N[C@@H]1CCCC[C@H]1N1Cc2ccc(-c3noc(C(F)(F)F)n3)cc2C1=O)N1CCCC1` [Example 158, N-((1R,2R)-2-(1-oxo-6-(5-(trifluoromethyl)-1,2,4-oxadiazol-3-yl)-1,3-dihydro-2H-isoindol-2-yl)cyclohexyl)pyrrolidine-1-carboxamide] the same measures were 4%, 34% and 99%.
For `CC(C)(C)OC(=O)N1C[C@@H](N2Cc3ccc(-c4noc(C(F)(F)F)n4)cc3C2=O)[C@H](c2ccccc2)C1` (relative stereo) [Example 2, tert-butyl trans-3-(1-oxo-6-(5-(trifluoromethyl)-1,2,4-oxadiazol-3-yl)-1,3-dihydro-2H-isoindol-2-yl)-4-phenylpyrrolidine-1-carboxylate] the same measures were 33%, 90% and 98%.
The matching figures for `O=C(NC1COC1)N[C@@H]1CCCC[C@H]1N1Cc2ccc(-c3noc(C(F)(F)F)n3)cc2C1=O` [Example 165, 1-oxetan-3-yl-3-((1R,2R)-2-(1-oxo-6-(5-(trifluoromethyl)-1,2,4-oxadiazol-3-yl)-1,3-dihydro-2H-isoindol-2-yl)cyclohexyl)urea]: 6%, 43% and 96%.
With `CC(CO)(CCl)C(=O)N[C@@H]1CCCC[C@H]1N1Cc2ccc(-c3noc(C(F)(F)F)n3)cc2C1=O` (relative stereo) [Example 204, 3-chloro-2-(hydroxymethyl)-2-methyl-N-(trans-2-(1-oxo-6-(5-(trifluoromethyl)-1,2,4-oxadiazol-3-yl)-1,3-dihydro-2H-isoindol-2-yl)cyclohexyl)propanamide], on HDAC1 enzyme, the “HDAC1 inhibitory rate (%) (1 μM)” value was found to be 7%. Also, the “HDAC9 inhibitory rate (%) (1 μM)” value at HDAC9 enzyme (1 µM) was 71%. Further, at HDAC6 enzyme (1 µM), the “HDAC6 inhibitory rate (%) (1 μM)” value stood at 99%.
On to `O=C1c2cc(-c3noc(C(F)(F)F)n3)ccc2CN1[C@@H]1CCOC[C@H]1c1ccccc1` (relative stereo) [Example 34, trans-2-(3-phenyltetrahydro-2H-pyran-4-yl)-6-(5-(trifluoromethyl)-1,2,4-oxadiazol-3-yl)isoindolin-1-one], for which, on HDAC1 enzyme, the “HDAC1 inhibitory rate (%) (1 μM)” value worked out at 90%. The inhibition at 1 µM amounted to 96% on HDAC9 enzyme and 99% on HDAC6 enzyme.
On to `O=C(N[C@H]1CCCC[C@H]1N1Cc2ccc(-c3noc(C(F)(F)F)n3)cc2C1=O)C1CC1` [Example 86, N-((1S,2R)-2-(1-oxo-6-(5-(trifluoromethyl)-1,2,4-oxadiazol-3-yl)-1,3-dihydro-2H-isoindol-2-yl)cyclohexyl) cyclopropanecarboxamide], for which the inhibition at 1 µM on HDAC1 enzyme was 80%; at HDAC9 enzyme, 92%; at HDAC6 enzyme, 98%.
For the compound `C[C@H](c1ccccc1)N1CC[C@H]2CC[C@H](N3Cc4ccc(-c5noc(C(F)(F)F)n5)cc4C3=O)[C@H]21` [Example 63, 2-((3aR,6S,6aS)-1-((1R)-1-phenylethyl)octahydrocyclopenta[b]pyrrol-6-yl)-6-(5-(trifluoromethyl)-1,2,4-oxadiazol-3-yl)isoindolin-1-one], the inhibition at 1 µM on HDAC1 enzyme came to 15%; at HDAC9 enzyme, 82%; on HDAC6 enzyme, 90%.
Take `O=C1C[C@H](C(=O)N[C@@H]2CCCC[C@H]2N2Cc3ccc(-c4noc(C(F)(F)F)n4)cc3C2=O)CN1` [Example 130, (3S)-5-oxo-N-((1R,2R)-2-(1-oxo-6-(5-(trifluoromethyl)-1,2,4-oxadiazol-3-yl)-1,3-dihydro-2H-isoindol-2-yl)cyclohexyl)pyrrolidine-3-carboxamide]: the inhibition at 1 µM worked out at 0% at HDAC1 enzyme, 30% at HDAC9 enzyme and 86% at HDAC6 enzyme.
The matching figures for `O=C1c2cc(-c3noc(C(F)(F)F)n3)ccc2CN1[C@@H]1CCNC[C@H]1c1cccc(Cl)c1` (relative stereo) [Example 53, 2-(trans-3-(3-chlorophenyl)piperidin-4-yl)-6-(5-(trifluoromethyl)-1,2,4-oxadiazol-3-yl)isoindolin-1-one]: 98%, 99% and 97%.
`O=C(N[C@@H]1CCCC[C@H]1N1Cc2ccc(-c3noc(C(F)(F)F)n3)cc2C1=O)N1CCOCC1` [Example 139, N-((1R,2R)-2-(1-oxo-6-(5-(trifluoromethyl)-1,2,4-oxadiazol-3-yl)-1,3-dihydro-2H-isoindol-2-yl)cyclohexyl)morpholine-4-carboxamide]: the values for the inhibition at 1 µM at HDAC1 enzyme, at HDAC9 enzyme and at HDAC6 enzyme were 5%, 25% and 98%, respectively.
As for `O=C(N[C@@H]1CCCC[C@H]1N1Cc2ccc(-c3noc(C(F)(F)F)n3)cc2C1=O)C1CC1` (relative stereo) [Example 12, trans-N-(2-(1-oxo-6-(5-(trifluoromethyl)-1,2,4-oxadiazol-3-yl)-1,3-dihydro-2H-isoindol-2-yl)cyclohexyl)cyclopropanecarboxamide], the inhibition at 1 µM at HDAC1 enzyme is 9%; at HDAC9 enzyme it was 48%; on HDAC6 enzyme, 98%.
The matching figures for `CC(C)(C)OC(=O)N1CC[C@@H](c2ccccc2)[C@H](N2Cc3cc(-c4noc(C(F)(F)F)n4)ccc3C2=O)C1` (relative stereo) [Example 71, tert-butyl trans-3-(1-oxo-5-(5-(trifluoromethyl)-1,2,4-oxadiazol-3-yl)-1,3-dihydro-2H-isoindol-2-yl)-4-phenylpiperidine-1-carboxylate]: 9%, 73% and 36%.
